The text below walks through data of paper PMC9930120 (Journal of Chemical Information and Modeling, 2023).

In general, pKi refers to the negative decadic logarithm of the Ki, by convention in mol/L.

Assay [1] addresses T1, human CB2 (Homo sapiens, UniProt P34972). The note with it: cited from earlier work.
Assay [2] addresses T1, human CB2. Put plainly: biochemical. Format: binding. As for the experimental part: The compounds selected for the in vitro binding assay were purchased via MolPort, SIA, Riga, Latvia (Supporting Information S2). Membrane preparations from CHO-K1 cells expressing the human CB2 (ChemiSCREEN Membrane Preparation Recombinant Human CB2 Cannabinoid Receptor. Merck, USA) were incubated in duplicate with 0.8 nM [^3H]CP-55,940 (specific activity: 101 Ci/mmole, PerkinElmer, USA) in a 50 mM Tris–HCl, pH = 7.4 buffer supplemented with 2.5 mM EDTA, 5 mM MgCl2, 0.5 mg/mL BSA and increasing concentrations of the compounds tested. Compounds were dissolved in 50% DMSO and added to the reaction mixture at 10 concentrations equally spaced on a log scale (10^–10–10^–4.5 M). The final DMSO concentration was 5%. […] The reaction mixture (500 μL) was incubated for 1.5 h at 30 °C. Before harvesting, Brandel Whatman GF/B Filter Paper was presoaked with 0.5% polyethylenimine buffer for 30 min and then washed with 2 mL of 50 mM Tris–HCl buffer (pH = 7.4) containing 0.5% BSA to minimize nonspecific binding. The reaction was terminated by depositing the samples onto the filter paper with the Brandel M–24 Cell Harvester. Samples were then rapidly washed three times with 2 mL of wash buffer (50 mM Tris–HCl pH 7.4, 2.5 mM EDTA, 5 mM MgCl2, 0.5 mg/mL BSA) to separate the bound radioligand from free. Filters were then air-dried for 1.5 h at 60 °C. After drying, filter discs were placed on a flexible 24-well plate and 500 μL of EcoScint-20 scintillant (PerkinElmer, USA) was added to each well. Plates were counted (2 min per well) in a Trilux MicroBeta counter (PerkinElmer, USA). Data were analyzed with GraphPad Prism 5.0 software.

In another assay the target is T2, human CB1 receptors (Homo sapiens, UniProt P21554).
T2 construct: purchased Merck; host or cells: Chem-1
Put plainly: CB1 radioligand displacement assay ([3H]CP-55,940). Format: binding. As to conditions: for CB1 Ki (μM, 95% CI) / CB1 pKi ± SEM: [3H]CP-55,940 displacement, Chem-1 membranes. Here is the method: Membrane preparations from Chem-1 cells expressing the human CB1 receptors (ChemiSCREEN CB1 Cannabinoid Receptor Membrane Preparation. Merck, USA) were incubated in duplicate with 1 nM [^3H]CP-55,940 (specific activity: 108.5 Ci/mmole, PerkinElmer, USA) in a 50 mM Tris–HCl, pH = 7.4 buffer supplemented with 1 mM CaCl2, 5 mM MgCl2, 0.2% BSA and increasing concentrations of the compounds tested. Compounds were dissolved in 50% DMSO and added to the reaction mixture at 10 concentrations equally spaced on a log scale (10^–10–10^–4.5 M). The final DMSO concentration was 5%. […] The reaction mixture (500 μL) was incubated for 1.5 h at 30 °C. Before harvesting, Brandel Whatman GF/B Filter Paper was presoaked with 0.5% polyethylenimine buffer for 30 min and then washed with 2 mL of 50 mM Tris–HCl buffer (pH = 7.4) containing 0.5% BSA to minimize nonspecific binding. The reaction was terminated by depositing the samples onto the filter paper with the Brandel M-24 Cell Harvester. Samples were then rapidly washed three times with 2 mL of wash buffer (50 mM Tris–HCl pH 7.4, 500 mM NaCl, and 5 mM MgCl2) to separate the bound radioligand from the free one. The rest of the procedure was the same as for CB2.
For orientation: Loss of bound radioactivity is the signal in a displacement assay; it reports binding, not function.

Assay [3] has as its target T1, human CB2. Briefly: CB2 [35S]GTPγS assay. The class given is biochemical. Details: purchased PerkinElmer ES-111-M400UA; host or cells: CHO-K1. As to conditions: compounds at 10 μM, 100 nM CP-55,940 as stimulating ligand. Here is the method:
Ten micromolar concentrations of each compound were incubated in triplicate with membrane preparations from CHO-K1 cells expressing the human CB2 receptor (0.5 μg per well) (PerkinElmer, Cat. No. ES-111-M400UA) in an assay buffer containing 50 mM Tris–HCl, pH = 7.4, 0.2 mM EGTA, 3 mM MgCl2, 100 mM NaCl, 30 μM GDP and 1 mg/mL BSA) in the presence of 0.08 nM [^35S] guanosine 5′-[γ-thio]triphosphate ([^35S]GTPγS) (specific activity: 1250 Ci/mmole, PerkinElmer). Nonspecific binding was determined with 100 μM of unlabeled GTPγS. CP-55,940 (100 nM) was used as stimulating ligand. The final DMSO concentration in the assay was 5%. The reaction mixture was incubated for 60 min at 30 °C. Next, the samples were deposited under vacuum with the FilterMate Harvester (PerkinElmer, USA) onto Unifilter GF/B Plates (PerkinElmer, USA) presoaked with wash buffer (50 mM Tris–HCl, pH = 7.4). The samples were then rapidly washed with 2 mL of wash buffer. Filter plates were dried for 30 min at 50 °C and 40 μL of MicroScint PS (PerkinElmer, USA) scintillation fluid was added to each well. Radioactivity was counted in a Trilux MicroBeta^2 counter (PerkinElmer, USA). Data were analyzed with GraphPad Prism 5.0 software. Results were expressed as percent of basal [^35S]GTPγS binding in the presence of CP-55,940 from three separate experiments. Basal binding was set to 100%.

The mark [4] stands for this setting: [3H]CP-55,940 displacement, CHO-K1 membranes.
Setting [5] is: [3H]CP-55,940 displacement, CHO-K1 membranes, read-out: CB2 pKi ± SEM (converted).
The mark [6] stands for this setting: [3H]CP-55,940 displacement, CHO-K1 membranes, read-out: CB2 Ki (μM, 95% CI).

pKi: −log10 of the molar value. Read-outs that look alike come from different tables or passages of the source. Bounds are passed on as bounds.

T2 sequence (P21554 whole entry): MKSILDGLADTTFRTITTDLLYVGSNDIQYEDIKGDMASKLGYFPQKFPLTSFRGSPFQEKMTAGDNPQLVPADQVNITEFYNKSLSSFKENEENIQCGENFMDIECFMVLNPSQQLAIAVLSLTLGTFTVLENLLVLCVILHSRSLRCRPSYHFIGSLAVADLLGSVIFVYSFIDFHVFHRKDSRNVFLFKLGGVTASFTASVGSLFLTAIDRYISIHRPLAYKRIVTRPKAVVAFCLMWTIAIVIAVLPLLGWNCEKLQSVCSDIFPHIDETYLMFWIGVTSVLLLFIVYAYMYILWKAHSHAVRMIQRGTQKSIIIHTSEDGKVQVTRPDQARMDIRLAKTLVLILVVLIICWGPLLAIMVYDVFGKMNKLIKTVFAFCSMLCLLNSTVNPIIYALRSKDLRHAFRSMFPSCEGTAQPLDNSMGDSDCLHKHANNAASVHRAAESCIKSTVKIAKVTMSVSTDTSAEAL
T1 sequence (P34972 whole entry): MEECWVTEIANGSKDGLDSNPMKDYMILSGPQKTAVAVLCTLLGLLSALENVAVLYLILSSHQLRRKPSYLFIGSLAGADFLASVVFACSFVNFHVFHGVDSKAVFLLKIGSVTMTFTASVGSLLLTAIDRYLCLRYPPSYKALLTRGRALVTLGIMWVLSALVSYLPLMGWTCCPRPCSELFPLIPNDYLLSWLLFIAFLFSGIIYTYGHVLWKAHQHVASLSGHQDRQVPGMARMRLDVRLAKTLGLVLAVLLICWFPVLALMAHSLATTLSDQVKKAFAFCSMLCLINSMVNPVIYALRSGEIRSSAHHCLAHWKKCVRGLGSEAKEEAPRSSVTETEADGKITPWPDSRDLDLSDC

For `COc1ccc(C(=O)c2c(C)n(CCN3CCOCC3)c3cc(I)ccc23)cc1` [AM-630], the pKi at human CB2 [1] is 7.51.

Consider `COc1cccc(Oc2c(C)oc3c4c(ccc3c2=O)OCN(Cc2ccccn2)C4)c1` [AS-3], for which, on human CB2 [2] (setting [4]), the “CB2 Ki (μM, 95% CI)” value is listed as “no activity” and the “CB2 pKi ± SEM” value was “no activity”.

Regarding `Cc1ccccc1-c1cc(C(=O)N2CCN(Cc3ccc4c(c3)OCO4)CC2)c2ccccc2n1` [AS-5], the Ki at human CB2 [2] (setting [5]) is 0.209 µM. On human CB1 receptors, the “CB1 Ki (μM, 95% CI)” value is given as “no activity” and the “CB1 pKi ± SEM” value is recorded as “no activity”. The CB2 intrinsic activity result on human CB2 [3] is recorded as “CB2 antagonists”.

Take `CCCC(C)(C)c1ccc2c(c1)OC(C)(C)[C@@H]1CC=C(C)C[C@@H]21` [JWH-133]: the pKi on human CB2 [1] is 8.47.

For `Cc1cc(C(=O)Nc2cccc(C)c2C)c2c(C)nn(Cc3ccccc3)c2n1` [AS-12], on human CB2 [2] (setting [4]), the “CB2 Ki (μM, 95% CI)” value is “no activity” and the “CB2 pKi ± SEM” value is “no activity”.

`N#Cc1c(Oc2cccc(OS(=O)(=O)CCCC(F)(F)F)c2)cccc1C(F)(F)F` [BAY 59-3074]: the pKi at human CB2 [1] was 7.34.

For the compound `Cc1cc(C)n(C[C@@H](O)c2ccc(-n3c4c(c5ccccc5c3=O)C(=O)c3ccccc3-4)cc2)n1` [AS-16], on human CB2 [2] (setting [4]), the “CB2 Ki (μM, 95% CI)” value is given as “no activity” and the “CB2 pKi ± SEM” value is “no activity”.

In the case of `CCCCCc1cc(O)c(C/C=C(\C)CCC=C(C)C)c(O)c1` [Cannabigerol], at human CB2 [1], the pKi was 5.53.

As for `Cc1cc(CSc2nnc(-c3nn(Cc4ccccc4)c(=O)c4ccccc34)o2)no1` [AS-6], on human CB2 [2] (setting [4]), the “CB2 Ki (μM, 95% CI)” value is listed as “no activity” and the “CB2 pKi ± SEM” value is given as “no activity”.

Regarding `Cc1nn(-c2ccccc2)c(C)c1C(=O)C(=O)Nc1cc(F)ccc1NC(=O)c1ccccn1` [AS-13], on human CB2 [2] (setting [4]), the “CB2 Ki (μM, 95% CI)” value is “no activity” and the “CB2 pKi ± SEM” value was “no activity”.

With `C[C@H](Sc1nnc2c3ccccc3nc(-c3ccccc3)n12)C(=O)NC[C@@H]1CCCO1` [AS-8], the Ki at human CB2 [2] (setting [6]) came out at 6.37 µM. Further, at human CB1 receptors, the “CB1 Ki (μM, 95% CI)” value was “no activity” and the “CB1 pKi ± SEM” value is “no activity”.

With `CCOC(=O)c1ccc(NC(=O)Cn2c(=O)nc(-c3ccccc3)c3cc(Cl)ccc32)cc1` [AS-2], on human CB2 [2] (setting [4]), the “CB2 Ki (μM, 95% CI)” value is given as “no activity” and the “CB2 pKi ± SEM” value is given as “no activity”.

Take `Cc1sc2nc(SCC(=O)c3ccc4c(c3)N(C)C(=O)CO4)nc(O)c2c1-c1ccccc1` [AS-1]: on human CB2 [2] (setting [4]), the “CB2 Ki (μM, 95% CI)” value is “no activity” and the “CB2 pKi ± SEM” value is recorded as “no activity”.

In the case of `O=C(NCc1cccs1)c1cccc(Nc2nn3c(=O)c4ccccc4nc3s2)c1` [AS-11], at human CB2 [2] (setting [4]), the “CB2 Ki (μM, 95% CI)” value is “no activity” and the “CB2 pKi ± SEM” value is recorded as “no activity”.

Turning to `Cc1nn(-c2ccccc2)c(C)c1CCc1nn2c(-c3ccccc3F)nnc2s1` [AS-4], at human CB2 [2] (setting [4]), the “CB2 Ki (μM, 95% CI)” value is given as “no activity” and the “CB2 pKi ± SEM” value was “no activity”.

On to `COc1cccc(-c2nn(Cn3nc([N+](=O)[O-])cc3C)c(-c3cccc(OC)c3)c2Cl)c1` [AS-9], for which the Ki at human CB2 [2] (setting [5]) is 2.09 µM. For the same compound, on human CB1 receptors, the “CB1 Ki (μM, 95% CI)” value is given as “no activity” and the “CB1 pKi ± SEM” value is recorded as “no activity”.

As to `Cc1nn(Cc2ccccc2)c(Cl)c1C(=O)NCc1ccccc1Cn1ccnc1` [AS-10], the Ki is 17.9 µM at human CB2 [2] (setting [6]) and 18.2 µM on human CB2 [2] (setting [5]).

Regarding `COCc1cc2nn(CC(=O)NCc3ccccc3Cl)c(=O)n2c(-c2ccccc2)n1` [AS-14], on human CB2 [2] (setting [4]), the “CB2 Ki (μM, 95% CI)” value is given as “no activity” and the “CB2 pKi ± SEM” value is listed as “no activity”.

In the case of `CN(Cc1ccccn1)C(=O)c1c2ccccc2c2n1CCCN(Cc1ccccc1)C2=O` [AS-15], at human CB2 [2] (setting [4]), the “CB2 Ki (μM, 95% CI)” value was “no activity” and the “CB2 pKi ± SEM” value was “no activity”.

On to `COc1ccc(C(=O)/C=C(\C(=O)c2ccccc2)c2ccccc2)cc1CN1CCOCC1` [AS-7], for which the “selectivity index for CB2 (Ki-CB1/Ki-CB2)” value at human CB2 [2] is over 40. Moreover, the Ki at human CB2 [2] (CB2 Ki (μM, 95% CI), [3H]CP-55,940 displacement, CHO-K1 membranes) amounted to 0.065 µM. This compound showed a pKi on human CB2 [2] (CB2 pKi ± SEM, [3H]CP-55,940 displacement, CHO-K1 membranes) of 7.18. At human CB1 receptors, the pKi was 5.57 and the “CB1 pKi ± SEM” value was 5.57 ± 0.9. Besides, the CB2 intrinsic activity result on human CB2 [3] is recorded as “CB2 antagonists”.
